Tests used:
Assay type in all cases: in vivo, rat
male Wister rats [1] = assay: Experimental tooth movement by closed coil spring (mesial shift of M1), systemic continuous infusion or intermittent injection; details: for mesial shift of M1 compared with control group: day 3
Source text: (§1) There are two methods for experimental tooth movement, i.e., one wherein an elastic band (made of rubber) is inserted between teeth and another one wherein a closed coil spring for orthodontics is used. The closed coil spring employed herein is Sentalloy closed coil spring 509-21 (made of Ni—Ti, manufactured by Tomy International K.K.) which can give an almost constant traction force of about 30 g within a spring-elongation range of 2 to 3 mm. […] When the initial elongation of the spring is regulated within the above-mentioned range, therefore, a constant force can be applied regardless of orthodontic tooth movement. When a rubber substance is inserted between molars, an extremely large force is applied immediately after the insertion but scarcely any force is applied after the target tooth is shifted by 0.5 mm. Accordingly, either the method with the insertion of an elastic (rubber) band or another one with the use of a closed coil spring may be used in experimental tooth movement within a short period of time. When a tooth is to be shifted over a long time, however, it is appropriate to use the latter method wherein the first molar is mesially shifted by elongating a closed coil spring. The method with the insertion of an elastic (rubber) band was employed in Example 1, while another method with the use of a closed coil spring was employed in Example 2.
(§2) It has been already clarified that the continuous administration of PTH and the intermittent administration thereof differ from each other in their effect on bones. Thus, attempts were made to examine how PTH administered by either method would affect the experimental tooth movement. Use was made of 12 male Wister rats weighing 350 to 400 g. In the continuous PTH-administration group, an osmotic pump (2ML2, manufactured by Alzet, Palo Alto, Calif., USA) was subcutaneously implanted into the dorsal part of each rat followed by the continuous infusion of hPTH (1-34) (manufactured by Peptide Institute Inc., Mino) in a dose of 0.4 μg/100 g body weight/day or 4 μg/100 g body weight/day. As the control groups, use was made of 2 groups including (1) one to which the vehicle was continuously infused, and (2) an intermittent administration group to which 4 μg/100 g body weight/day of PTH was subcutaneously injected into the dorsal part once a day. From the next day of the initiation of the PTH-administration, an ultra-elastic closed coil spring (509-21, manufactured by Tomy International, K.K., Tokyo) was put between the upper incisive tooth and the right first molar M1 followed by the mesial traction of M1 for 12 days (FIG. 6-A, B). After the initiation of the shifting, the precise impression of the upper jaw was taken every 3 days by using a silicone impression material (Exafine, manufactured by GC, Tokyo) and the distance between the first molar and the second molar (M2) was measured on ultra-hard gypsum models (FIG. 6-C). After the completion of shifting over 12 days, arterial blood was collected from the abdominal aorta and various serum parameters were measured. After sacrificing each rat, the upper jaw and the right thickening bone were taken out. The upper jaw was decalcificated and then cut into a paraffin section of 8 μm in thickness involving, in the direction of the major axis, the buccal mesial root and the buccal distal root followed by HE-staining and histological observation. The bone mineral content and bone mineral density of the isolated the femur were measured by dual-x-ray absorptometry (DCS-600, manufactured by Aloka, Tokyo, Japan).

male Wister rats [2] = assay: Experimental tooth movement by closed coil spring (mesial shift of M1), local administration of sustained release dosage form; details: 1 μg/400 g locally injected every 2 days (sustained release), FIG. 15
Source text: as §1, with “2. […]” for “2.”

male Wister rats [3] = assay: Histological findings of periodontium and alveolar bone in closed coil spring tooth movement; details: continuous systemic infusion group
Source text: as §2, with “The upper jaw was decalcificated and then cut into a paraffin section of 8 μm in thickness involving, in the direction of the major axis, the buccal mesial root and the buccal distal root followed by HE-staining and histological observation.” left out, “Japan). […]” for “Japan).”

male Wister rats [4] = assay: Experimental tooth movement by elastic band inserted between M1 and M2 (teeth separation), continuous PTH infusion
Source text: as §1
(§3) 18 rats were divided into 4 groups including a control group having 6 animals and 3 PTH-infusion groups each having 4 animals. PTH was dissolved in a citric acid-buffered saline containing 0.05% of Tween 80 and introduced into osmotic pumps. Then these pumps were implanted in the subcutus posterior region of the neck of the rats under ether anetheia. PTH was continuously infused into the rats in doses of 1, 3 and 10 μg/100 g body weight/day and the rats were fed with a standard pelletized feed (manufactured by Oriental Yeast Co., Ltd.). To the rats of the control group, vehicles were exclusively administered. 48 hours after implanting, a piece of an elastic band (0.8 mm in thickness) was inserted between the right upper first molar and second molar (between M1 and M2) of each rat under ether anetheia in accordance with the method of Wong-Rothblatt (1954) as shown in FIG. 1(A). On day 3 of the teeth separation, the rat was sacrificed by ether-inhalation. After cutting out the upper jaw, the distance between the adjacent faces of M1 and M2 was measured with the combined use of contact gauges (manufactured by Sun Dental, Osaka) of 50, 100 and 150 μm in thickness (FIGS. 1(B) and (C)). In the case of the control group, a contact gauge of 50 μm could be inserted between M1 and M2. Thus, the interdental distance was calculated by subtracting 50 μm from the measured distance of each animal. […] The upper jaw was fixed in 4% paraformaldehyde, decalcificated in 4% formic acid and then implanted in paraffin. […] Histological examinations were all performed in the pressured side of the M1 interradicular septa and osteoclasts in the area of 300×700 μm^2 in this region were counted (FIG. 1(C)). Osteoclasts were counted based on the fact that they were large multinuclear cells having been stained with eosin and located adjacent to the bone surface. The statistic differences between the control group and the test group was evaluated in accordance with Wilcoxon's rank-sum calibration method. […]

osteoclasts = assay: Osteoclast count in the pressured side of the M1 interradicular septa during teeth separation; details: for osteoclast count in the pressured side compared with control group: 10 μg/100 g body weight/day infusion, FIG. 5
Method: as §3

male Wister rats [5] = assay: Histological change in pressured periodontia during teeth separation
Method: 18 rats were divided into 4 groups including a control group having 6 animals and 3 PTH-infusion groups each having 4 animals. PTH was dissolved in a citric acid-buffered saline containing 0.05% of Tween 80 and introduced into osmotic pumps. Then these pumps were implanted in the subcutus posterior region of the neck of the rats under ether anetheia. PTH was continuously infused into the rats in doses of 1, 3 and 10 μg/100 g body weight/day and the rats were fed with a standard pelletized feed (manufactured by Oriental Yeast Co., Ltd.). To the rats of the control group, vehicles were exclusively administered. 48 hours after implanting, a piece of an elastic band (0.8 mm in thickness) was inserted between the right upper first molar and second molar (between M1 and M2) of each rat under ether anetheia in accordance with the method of Wong-Rothblatt (1954) as shown in FIG. 1(A). On day 3 of the teeth separation, the rat was sacrificed by ether-inhalation. After cutting out the upper jaw, the distance between the adjacent faces of M1 and M2 was measured with the combined use of contact gauges (manufactured by Sun Dental, Osaka) of 50, 100 and 150 μm in thickness (FIGS. 1(B) and (C)). In the case of the control group, a contact gauge of 50 μm could be inserted between M1 and M2. Thus, the interdental distance was calculated by subtracting 50 μm from the measured distance of each animal. […] The upper jaw was fixed in 4% paraformaldehyde, decalcificated in 4% formic acid and then implanted in paraffin. Subsequently, these preparations were cut into continuous mesiodistal sections of 8 μm in thickness and stained with hematoxylin and eosin. Histological examinations were all performed in the pressured side of the M1 interradicular septa and osteoclasts in the area of 300×700 μm^2 in this region were counted (FIG. 1(C)). Osteoclasts were counted based on the fact that they were large multinuclear cells having been stained with eosin and located adjacent to the bone surface. The statistic differences between the control group and the test group was evaluated in accordance with Wilcoxon's rank-sum calibration method. Each of the data was expressed in average±SEM. A P value less than 0.05 was regarded as being statistically significant.
32 rats were divided into 2 test groups each having 16 animals. […] To the rats of the control group, vehicles were exclusively administered. 2 days after implanting osmotic pumps, an elastic band was inserted between the right M1 and M2 of each rat. On days 0, 1, 3 and 5 of the teeth separation (i.e., on days 2, 3, 5 and 7 of the PTH infusion), the rats were sacrificed followed by the same procedures as those performed in Experiment 1.

[6] = 1 μg/100 g body weight/day and 3 μg/100 g body weight/day groups

Question: With human PTH (1-34) [hPTH (1-34)] as the molecule, how does the tooth shift-promoting effect (male Wister rats [1]; continuous PTH infusion group, after day 9, FIG. 10) read?
Answer: observed more remarkably

Question: What about the “mesial shift of M1 compared with control group” value (male Wister rats [1]; continuous PTH infusion group, FIG. 10) of the same molecule?
Answer: slightly significantly promoted

Question: And the “mesial shift of M1 relative to control group” value (male Wister rats [1]; continuous infusion of 4 μg/100 g body weight/day, day 12)?
Answer: twice

Question: And the “mesial shift of M1” value (male Wister rats [1]; continuous infusion of 4 μg/100 g body weight/day, day 12 of tooth movement)?
Answer: 1.01±0.09 mm

Question: And the “shift of M1, dose dependence” value (male Wister rats [1]; continuous infusion of 0.4 or 4 μg/100 g body weight/day, day 12, FIG. 7)?
Answer: promoted depending on the dose

Question: And the “mesial shift of M1 compared with control group” value (male Wister rats [1]; intermittent PTH injection group (4 μg/100 g body weight/day s.c. once a day), FIG. 10)?
Answer: slightly significantly promoted

Question: And the “M1 shifting distance compared with control group” value (male Wister rats [1]; intermittent PTH injection group, after day 6, FIG. 10)?
Answer: no significant difference

Question: What about the tooth movement-promoting effect (male Wister rats [2]; after day 9) of the same molecule?
Answer: more remarkable

Question: And the “mesial M1 shift” value (male Wister rats [2]; since day 3)?
Answer: tendency that the mesial M1 shift was promoted

Question: What about the “bone resorption in the mesial alveolar bone of M1 compared with control group” value (male Wister rats [3]) of the same molecule?
Answer: energetic bone resorption

Question: What about the “bone resorption in the distal side of the alveolar septum” value (male Wister rats [3]; FIG. 16-B) of the same molecule?
Answer: remarkable bone resorption was observed over a wide range

Question: What about the “necrotic tissue in the periodontal membrane, compared with control group” value (male Wister rats [3]; FIG. 16-B) of the same molecule?
Answer: no such necrotic tissue

B1: human PTH (1-84) (protein, UniProt P01270 32-115, looked up)
Parathyroid hormone: SVSEIQLMHNLGKHLNSMERVEWLRKKLQDVHNFVALGAPLAPRDAGSQRPRKKEDNVLVESHEKSLGEADKADVNVLTKAKSQ
modifications: Parathyroid hormone
notes: recombinant human parathyroid hormone consisting of 84 amino acid residues
Question: B1 was tested. Which “distance between M1 and M2 compared with control group” value (male Wister rats [4]; Experiment 1, 10 μg/100 g body weight/day continuous infusion, elastic band for 3 days, FIG. 2) did it give?
Answer: significant increase

Question: What about the “teeth separation distance compared with control group” value (male Wister rats [4]; Experiment 2, 10 μg/100 g body weight/day infusion, day 1, FIG. 3) of the same molecule?
Answer: no significant difference

Question: And the “teeth separation distance compared with control group” value (male Wister rats [4]; Experiment 2, 10 μg/100 g body weight/day infusion, day 3, FIG. 3)?
Answer: significant increase

Question: What about the teeth separation (male Wister rats [4]; Experiment 2, 10 μg/100 g body weight/day infusion, day 5, FIG. 3) of the same molecule?
Answer: almost reached the limit

Question: And the “dose of PTH infusion achieving the maximum effect on teeth separation” value (male Wister rats [4]; continuous infusion of 1, 3 and 10 μg/100 g body weight/day, day 3 of teeth separation, FIG. 2)?
Answer: 10 μg/100 g body weight/day

Question: And the “osteoclast count in the pressured side compared with control group” value (osteoclasts; day 5)?
Answer: no significant difference

Question: And the “osteoclast count in the pressured side compared with control group” value (osteoclasts; from day 1)?
Answer: significant increase

Question: And the “osteoclast count in the pressured side of the periodontia, test groups and control group compared” value (osteoclasts; 1, 3 and 10 μg/100 g body weight/day infusion (all 3 test groups), elastic band for 3 days, FIG. 4)?
Answer: significant increase

Question: What about the “bone resorption compared with vehicle-treated rats” value (male Wister rats [5]; [6]) of the same molecule?
Answer: bone resorption seemingly arose over wider range

Question: What about the “necrotic tissue in the pressured periodontia” value (male Wister rats [5]; [6]) of the same molecule?
Answer: necrotic tissue was also observed

Question: What about the “necrotic tissue in the pressured periodontia” value (male Wister rats [5]; 10 μg/100 g body weight/day, day 1 of teeth separation) of the same molecule?
Answer: necrotic tissue was observed

Question: What about the “necrotic tissue in the pressured periodontia” value (male Wister rats [5]; 10 μg/100 g body weight/day, day 3 of teeth separation) of the same molecule?
Answer: no necrosis
